One experiment concerns S. aureus JAR060131. Format: cell-based, Staphylococcus aureus. The settings on record: approx. 1 × 10^6 CFU/ml S. aureus JAR, within 2 hrs (Table 2). The procedure: Polypeptides of the invention preferably have an in vitro IC99.9 of at most 150 μM after 2 hours at 37° C. against at least one microbial species in the presence of 50% plasma. Said IC99.9 is preferably determined in accordance with a method for determining the antimicrobial activity as described herein in the Examples. Said method described in the Examples for determining antimicrobial activity of microbes not associated with biofilm involves the mixing of 50 microL of a solution of a polypeptide in PBS with addition of human plasma at a final concentration of 50% and 20 microL of bacterial suspension with 5×10^6 CFU per mL of PBS in a well. After incubation of this mixture for 2 hours at 37° C. under shaking conditions, a sample is used for assessment of the bacterial counts. The lowest peptide concentration at which there is 99.9% of bacteria killed, is called the inhibitory concentration (IC) 99.9. Bacterial counts can be determined by manual CFU counting. For determining antibacterial activity for instance 1×10^6 CFU/ml bacteria are used, for determining antifungal activity for instance 1×10^5 cells/ml are used.
(§1) Peptides were incubated with 1×10^6 CFU/ml of a mid-logarithmic culture of S. aureus JAR060131, methicillin resistant S. aureus (MRSA) LUH14616, Staphylococcus epidermidis RP62a, and Pseudomonas aeruginosa PAO1 in PBS without or with addition of pooled human plasma (Sanquin, Amsterdam, the Netherlands) at a final concentration of 50%. Antimicrobial activity is expressed as the 99.9% lethal concentration (LC99.9), i.e., the lowest peptide concentration which killed ≥99.9% of bacteria after 2 hours of incubation at 37° C. under shaking conditions.

Experiment [1] relates to Staphylococcus epidermidis RP62a. The experiment is classed as cell-based. The settings on record: 50% plasma. The procedure: as §1
The test system of experiment [2] is S. aureus JAR060131 biofilm formation. Format: cell-based, Staphylococcus aureus. The procedure: After solubilization with ethanol, the optical density at 590 nm is determined as a measure of biofilm mass.
Peptides were incubated with 1×10^8 CFU/ml of S. aureus JAR060131 in biofilm-adjusted BM2 in 96-wells polypropylene plates as described in Antimicrob Agents Chemother 2012; 56: 2696-2704. After 24 hours incubation at 37° C., planktonic bacteria were removed by four washes with PBS and biofilms were stained with crystal violet. After solubilization with ethanol, the optical density at 590 nm was determined as a measure of biofilm mass.
To assess the antibiofilm activity of the peptides in the presence of plasma, 96-wells polypropylene plates were coated with plasma by overnight incubation with 20% plasma at 4° C. Wells were washed once with sterile water and inoculated with S. aureus and peptides as described above.

Experiment [3] deals with UV-killed S. aureus JAR060131-induced IL-8 production. In words: S. aureus neutralization in whole human blood. Format: cell-based. Conditions: for IC50: UV-killed S. aureus JAR060131-induced IL-8, blood from one donor. The procedure:
(§2) Peptides were pre-incubated with 500 ng/ml LPS (E. coli 054) or 2 mg/ml LTA (S. aureus, endotoxin-free) or 1×10^9 CFU/ml of UV-killed S. aureus JAR060131 for 30 min at 37° C. Diluted whole human blood was stimulated with the peptide-LPS/LTA/S. aureus mixtures for 20 hours at 37° C. IL-12p40 and IL-8 levels in supernatants were determined using ELISA.

Experiment [4] concerns LPS (E. coli 054)-induced IL-12p40 production. The experiment is described as follows: LPS neutralization in whole human blood. The experiment is classed as cell-based. The settings on record: for IC90: LPS-induced IL-12p40, blood from two donors; for IC50: diluted whole human blood, 20 hours.
From the text: (§3) The term “anti-inflammatory activity” of a polypeptide as used herein refers to inhibiting, reducing or preventing an inflammatory response in a subject that has been infected by microbes, e.g. bacteria, viruses, fungi, and/or parasites. Anti-inflammatory activity of polypeptides of the invention is achieved by inhibiting, reducing or preventing the release of pro-inflammatory microbial compounds, such as lipoteichoic acid (LTA), peptidoglycan (PG) and/or lipopolysaccharides (LPS). Anti-inflammatory activity can be measured by methods known in the art. Examples of such method are a LPS neutralization assay and a LTA neutralization assay as described in the Examples of this application. In such method, a polypeptide of the invention is mixed with a fixed concentration of LPS or LTA, such as 500 ng/ml LPS or 2 mg/ml LTA, and incubated for 30 min. Thereafter, these mixtures were added to diluted fresh human whole blood and 20 hours thereafter the level of cytokines (e.g. 1L-8 for LTA and 1L-12p40 for LPS) in the blood sample are measured by ELISA.
as §2

Experiment [5] relates to LTA (S. aureus)-induced IL-8 production. In words: LTA neutralization in whole human blood. Conditions: for IC50: LTA-induced IL-8, blood from one donor. Format: cell-based.
From the text: as §3, §2

The subject of the next experiment is A. niger PagsA-lux. In words: Effect on fungal growth. Format: cell-based, Aspergillus niger. The settings on record: for concentration inhibiting A. niger growth: 25% plasma, light micrographs only, 16 hours (FIG. 2). The procedure:
The effect of the peptides on fungal growth was assessed using Aspergillus niger. Peptides were incubated with 7.5×10^4 spores/ml of A. niger PagsA-lux in PBS without or with addition of pooled human plasma at a final concentration of 25%. As positive control, spores were treated with the antifungal caspofungin (Cancidas). Absorbance was measured over time and at 16 hours, fungal growth was visualized using light microscopy.

Setting [6] is: JAR060131 biofilm formation, 24 h.

Like-named read-outs stand apart in the source and are kept apart here.

In the case of “Ac-LKRVWKRVFKLLKRYWRQLKKPVR-NH2 [Peptide P148, J LKRVWKRVFKLLKRYWRQLKKPVR B]”, the IC99.9 with S. aureus JAR060131 (50% plasma) was 12.8 µM; in the experiment on S. aureus JAR060131 (PBS) it was 1.6 µM. In addition, in experiment [1], the “higher bactericidal activity as compared to OP-145” value worked out at 43 fold. Also, the IC50 was found to be 12800 nM in experiment [2] (setting [6]), 1.56 µM in experiment [3], 0.03 nM in experiment [4] and 0.195 µM in experiment [5]. Moreover, the “concentration needed to inhibit biofilm formation for 50%, relative to OP-145 and P159” value in experiment [2] (plasma-coated wells (FIG. 3B)) is “two-fold higher concentration”. Besides, in experiment [3], the “fold higher concentration than OP-145 needed to inhibit S. aureus-induced IL-8 production for >50%” value was found to be 8 fold. Moreover, the concentration for an effect of 90% (IC90) in experiment [4] is 0.25 nM. For the same substance, the “fold increased LTA-neutralizing ability versus OP-145” value in experiment [5] is reported as 4 fold. Moreover, the “concentration inhibiting A. niger growth” value in the experiment with A. niger PagsA-lux came out at 102.4 µM. For the same substance, the “fold higher antifungal activity as compared to OP-145” value in the experiment on A. niger PagsA-lux (PBS) is 4 fold. Further, the “concentration inhibiting A. niger growth (by >99.9%)” value with A. niger PagsA-lux (PBS, optical density (FIG. 1)) stood at 0.8 µM.
As for “Ac-LKRLYKRVFRLLKRYYRQLRRPVR-NH2 [Peptide P159, J LKRLYKRVFRLLKRYYRQLRRPVR B]”, the results for the IC99.9 in the experiment with S. aureus JAR060131 (50% plasma) and with S. aureus JAR060131 (PBS) were 12.8 µM and 1.6 µM, respectively. Also, the “higher bactericidal activity as compared to OP-145” value in experiment [1] was 43 fold. Further, the IC50 was determined as 12800 nM in experiment [2] (setting [6]); 3200 nM in experiment [2] (plasma-coated wells (FIG. 3B), read-out: concentration inhibiting biofilm formation for 50%); 0.195 µM in experiment [3]; 0.05 nM in experiment [4]; 0.195 µM in experiment [5]. The concentration for an effect of 90% (IC90) in experiment [4] stood at 0.25 nM. Moreover, the “fold increased LTA-neutralizing ability versus OP-145” value in experiment [5] is recorded as 4 fold. Also, the “concentration inhibiting A. niger growth” value in the experiment on A. niger PagsA-lux stood at 102.4 µM. For the same substance, the “fold lower antifungal activity as compared to OP-145” value in the experiment with A. niger PagsA-lux (PBS) turned out to be 2 fold.

Values taken from patent US10130677B2, “Antimicrobial peptide and uses thereof” (priority 2013, dated 2018).
